# Like-named read-outs stand apart in the source and are kept apart here. Marks after values point to notes of the source that are not given here.
# Key:
# [1] = tested on: rabbit fever induced by typhoid and paratyphoid vaccine; assay: Rabbit fever induced by typhoid and paratyphoid vaccine; format: in vivo, Japanese big-ear white rabbits; conditions: 5.2 mg/kg i.g.
# Protocol: Male Japanese big-ear white rabbits with a weight 1.5˜2.0 kg were used. Before the test, WSC-411P portable digital thermometer was used to measure the normal rectal temperature twice (with certain interval for each time), and the average value was taken as the normal body temperature of rabbits. […] Each group has 6 rabbits, and the test was repeated 3 times for each group. Rabbits were fixed into a fixator. The blank control group was intravenously injected with normal saline of 1 ml/kg via the ear margin; The model control group and each drug group were intravenously injected with typhoid and paratyphoid vaccines of 0.8 ml/kg via the ear margin. After the body temperatures of the rabbits increased by 1° C. or more (requiring about 1˜1.5 h, and this test was limited to 1 h), the blank control group and the model group were administered intragastrically with 0.5% carboxymethycellulose of 1 ml/kg, and the drug groups were administered intragastrically with phillyrin/phillygeninin compositions and paracetamol respectively. The rectal temperature was measured after administration for 30, 60, 90, 120, 180 and 240 min to observe the changes in the body temperature, and difference between the groups was compared by inter-group t test processing through antipyretic percentage.
# adenovirus (ADV) = assay: Impact on virus-induced cytopathic effect in Vero cells (MTT): ADV; format: cell-based; conditions: ADV 100TCID50, Vero, 72 h; drug g/L as Table 1-2
# Vero cells = assay: Cytotoxicity test (MTT) on Vero cells; format: cell-based, African green monkey; conditions: 72 h
# Protocol: Cytotoxicity test: the drugs were diluted according to the concentrations shown in table 1-1 for determination of cytotoxicity. […] In addition, 6 wells were set up as normal control group (without drugs) while another 6 pores as blank control group (medium only). Cells were grown in a 37° C. incubator under 5% CO2. […] After 72 h, 20 μL MTT solution (5 mg·mL^−1) was added into each well to continue incubation for 4 h. The culture medium in each well was sucked and discarded, 100 μL DMSO was added to each well. Then the culture was shaken for 5 min, measured OD value at 492 nm to calculate the cell survival ratio. The cell survival ratio was analyzed using a Probit regression model in SPSS 18.0 statistical software, and the maximal nontoxic concentration (TC0) and median toxic concentration (TC50) of drugs against Vero cells were calculated.
# [2] = tested on: rat paw swelling induced by carrageenin; assay: Rat paw swelling induced by carrageenin; format: in vivo, Wistar rats; conditions: 10.0 mg/kg
# Protocol: Each group has 10 rats. Rats in each group were all administered by […] through the sublingual vein. Normal volume of the right hind paw of each rat in each group was measured in capillary magnification measurement method. In order to avoid errors, the measurement should be carried out in a fixed position and operated by the same person before and after administration. A mean of the two measurement values was taken as the normal volume of the right hind paw of a rat before administration. […] The difference between the groups was compared by inter-group t test processing through the difference percentage (swelling ratio) of the paw volume before and after the induced rat inflammation. [formula] Results
# influenza virus [3] = assay: Impact on virus-induced cytopathic effect in Vero cells (MTT): influenza virus; format: cell-based
# [4] = tested on: sweat gland epithelial cells of rat paws; assay: Sweat secretion of rat paws (histomorphological observation method); format: in vivo, Wistar rats; conditions: dose not given; i.g., 1 h after administration
# Text: This test is based on a mechanism that when a rat is in an excited state, in addition to the increase of sweat secretion of sweat glands, the morphology of sweat gland epithelial cells changes accordingly. Under an optical microscope, it can be seen that the sweat gland epithelial cell vacuoles increase in number and expand. Under an electron microscope, such expanded vacuoles appear to be mitochondria in the sweat gland epithelial cell swelling, breakage and fusion and expansion of secretory vesicle. Therefore, through histomorphological observation of sweat gland epithelial tissue of a rat paw, secretory activities of the sweat gland can be known.
# 300 Wistar rats with equal male and female number, weighing 120˜160 g were used. These rats were randomly divided into 30 groups by weight and gender: control groups (0.5% of methyl cellulose), phillygeninin groups, phillyrin groups, low, medium and high dose groups (2.5, 5, 10 mg/kg) of phillyrin/phillygeninin compositions A and B separately, and positive drug pilocarpine groups (35 mg/kg). Each group has 10 rats, the test is repeated 3 times for each group. Pilocarpine solution was administered by subcutaneous injection, the remaining groups were subjected to intragastric administration. After administration of the 0.5% of methyl cellulose in the control group for one hour, after administration of the pilocarpine in the positive drug group for 30 min, and after administration of the phillyrin, the phillygeninin and the phillyrin/phillygeninin composition for one hour, the right hind limb was instantly cut off at the ankle joint to immediately take down the footpad of the right hind limb and placed into 10% of formaldehyde solution. The footpads were fixed, dehydrated, embedded, sliced and stained with HE by using conventional methods. Changes in sweat gland epithelial cells of the rat paws from each group were observed under an optical microscope, to mainly observe the percentage of vacuolization. The differences among the various groups was performed through X^2 test for statistical analysis. The above test was repeated 3 times. Percentage of vacuolization=(the number of vacuolized sweat glands)/(the number of sweat glands observed)×100%.
# influenza virus [5] = format: in vivo, Kunming mice; conditions: 13.0 mg/kg/d i.g. 5 days
# [6] = tested on: Coxsackie virus B3 (CVB3); assay: Impact on virus-induced cytopathic effect in Vero cells (MTT): CVB3; format: cell-based; conditions: CVB3 100TCID50, Vero, 72 h; drug g/L as Table 1-2
# [7] = 15 min after inflammation induction
# [8] = 30 min after inflammation induction
# [9] = 60 min after inflammation induction
# [10] = 120 min after inflammation induction
# [11] = 180 min after inflammation induction
# [12] = 240 min after inflammation induction
# [13] = 300 min after inflammation induction
# [14] = 360 min after inflammation induction
Compound,Body temperature ([1]; 30 min after administration),antipyretic percentage (%) ([1]; 30 min after administration),Body temperature ([1]; 60 min after administration),antipyretic percentage (%) ([1]; 60 min after administration),Body temperature ([1]; 90 min after administration),antipyretic percentage (%) ([1]; 90 min after administration),Body temperature ([1]; 120 min after administration),antipyretic percentage (%) ([1]; 120 min after administration),Body temperature ([1]; 180 min after administration),antipyretic percentage (%) ([1]; 180 min after administration),Body temperature ([1]; 240 min after administration),antipyretic percentage (%) ([1]; 240 min after administration),antiviral effective rate (ER %) (adenovirus (ADV)),half toxic concentration (TC50) (Vero cells),maximal non-toxic concentration (TC0) (Vero cells),"Swelling percentage (%) [2, 7]","Swelling percentage (%) [2, 8]","Swelling percentage (%) [2, 9]","Swelling percentage (%) [2, 10]","Swelling percentage (%) [2, 11]",also measured
"COc1cc([C@H]2OC[C@H]3[C@@H]2CO[C@H]3c2ccc(OC)c(OC)c2)ccc1O [Phillygeninin, phillygeninin]",41.06 ± 0.26 °C,−0.10 ± 0.11%,40.86 ± 0.21 °C,−0.49 ± 0.10%,40.74 ± 0.22 °C,−0.77 ± 0.22%,40.65 ± 0.27 °C,−1.00 ± 0.18 %,40.49 ± 0.23 °C,−1.39 ± 0.17 %,40.30 ± 0.25 °C,−1.85 ± 0.15 %,50.61%,297 µg/mL,0.011 g/L,14.9 ± 6.13%,21.9 ± 9.72%,27.1 ± 13.5%,30.7 ± 10.2 %,33.8 ± 12.1 %,"Swelling percentage (%) [2, 12]: 31.0 ± 11.3 %; Swelling percentage (%) [2, 13]: 35.8 ± 13.5 %; Swelling percentage (%) [2, 14]: 36.4 ± 10.2%; antiviral effective rate (ER %) (influenza virus [3]): 75.35** %; Number of sweat glands of vacuole [4]: 79; percentage of vacuolization (%) [4]: 20.26** %; Hemagglutination titer (InX) (influenza virus [5]): 22.61 ± 1.059; Inhibition rate (%) of hemagglutination titer (influenza virus [5]): 30.22%; antiviral effective rate (ER %) [6]: 50.89%"
COc1ccc([C@H]2OCC3C2CO[C@H]3c2ccc(O[C@@H]3OC(CO)[C@@H](O)[C@H](O)C3O)c(OC)c2)cc1OC (stereo partly shown) [phillyrin],40.83 ± 0.26 °C,−0.37 ± 0.15%,40.58 ± 0.21 °C,−0.61 ± 0.12%,40.43 ± 0.22 °C,−0.97 ± 0.27%,40.37 ± 0.27 °C,−1.13 ± 0.14 %,40.16 ± 0.23 °C,−1.65 ± 0.12 %,39.92 ± 0.25 °C,−2.22 ± 0.11 %,75.14** %,550 µg/mL,0.0066 g/L,12.9 ± 8.41%,19.9 ± 9.55%,21.8 ± 11.8 %,28.9 ± 14.0 %,30.8 ± 15.4 %,"Swelling percentage (%) [2, 12]: 29.9 ± 11.1 %; Swelling percentage (%) [2, 13]: 33.5 ± 10.0 %; Swelling percentage (%) [2, 14]: 32.2 ± 11.9 %; antiviral effective rate (ER %) (influenza virus [3]; influenza virus 100TCID50, Vero, 72 h, drug g/L (Table 1-2): phillyrin 0.01, Phillygeninin 0.02, compositions A, B 0.01, Ribavirin 0.70, oseltamivir phosphate 0.30): 75.38** %; Number of sweat glands of vacuole [4]: 86; percentage of vacuolization (%) [4]: 22.15** %; Hemagglutination titer (InX) (influenza virus [5]): 22.06 ± 1.120; Inhibition rate (%) of hemagglutination titer (influenza virus [5]): 31.90%; antiviral effective rate (ER %) [6]: 75.27** %"

# Source: patent US10881679B2, “Application of a phillyrin/phillygeninin composition in preparing a medicine or health care product for alleviating or/and treating viral diseases, and medicine or health care product for treating viral diseases” (priority 2014, dated 2021)
